“Also recorded” adds a separate entry of the source. Like-named read-outs stand apart in the source and are kept apart here.
Legend:
[1] = system: human breast cancer MDA-MB-231 cell line; experiment: Resazurin cytotoxicity assay, MDA-MB-231; format: cell-based; conditions: for cytotoxic effect in MDA-MB-231 (in words): 0, 5, 10, 20, 50 µM
Procedure: (§1) The cells were treated with the compounds at concentrations 0, 5, 10, 20, and 50 µM for 24 h, and the cytotoxicity was estimated by the resazurin assay.
To estimate IC50 of 6 and 14, MDA-MB-231 cells were treated with 1 (0, 2, 5, 10, 15, 20, 25, 30, 40, and 50 µM), 6 (0, 5, 10, 20, 25, 30, 40, 50, 70, and 100 µM), and 14 (0, 20, 40, 50, 60, 70, 80, 100, 150, and 200 µM) for 24 h.
(§2) The resazurin reduction assay[34] was performed as described previously. Briefly, cells were seeded onto a 96-well plate (2000 cells per well) in hexaplicate and the following day treated with the tested compounds (dissolved in DMSO as 50 mM stock) in a concentration range as indicated. After 24 h, 200 μl of culture medium of each well was exchanged for 100 μl of resazurin (stock 30 mg/ml; Sigma, St. Louis, MO) diluted 10 times in the culture medium, and the cells were incubated at 37 °C for 1–3 h. Reading of fluorescence was done using an Envision reader (PerkinElmer, Waltham, MA). Absolute values of fluorescence were related to the values of control/untreated cells. To estimate the cytotoxic concentration (half maximal inhibitory concentration, IC50), log-scale data were processed in GraphPad Prism software (La Jolla, CA) using nonlinear fit curve.

[2] = system: prostate carcinoma DU-145; experiment: Resazurin cytotoxicity assay, DU-145; conditions: Homo sapiens, DU-145, read-out: IC50±SD DU-145
Procedure: (§3) Furthermore, the cytotoxicity of compound 6 was compared to BP-1-102 (1) in human glioblastoma cell lines U-87 and T98 in concentration range 0–80 µM for 24 h using the crystal violet assay.
as §2

RPE-1 = experiment: Resazurin assay, RPE-1 (Table 2); format: cell-based; conditions: Homo sapiens, resazurin assay (footnote a), read-out: IC50±SD RPE-1
Procedure: The resazurin reduction assay[34] was performed as described previously[38]. Briefly, cells were seeded onto a 96-well plate (2000 cells per well) in hexaplicate and the following day treated with the tested compounds (dissolved in DMSO as 50 mM stock) in a concentration range as indicated. After 24 h, 200 μl of culture medium of each well was exchanged for 100 μl of resazurin (stock 30 mg/ml; Sigma, St. Louis, MO) diluted 10 times in the culture medium, and the cells were incubated at 37 °C for 1–3 h. Reading of fluorescence was done using an Envision reader (PerkinElmer, Waltham, MA). Absolute values of fluorescence were related to the values of control/untreated cells. To estimate the cytotoxic concentration (half maximal inhibitory concentration, IC50), log-scale data were processed in GraphPad Prism software (La Jolla, CA) using nonlinear fit curve.

[3] = system: mouse lung TC-1 cancer cell line; experiment: MTT cytotoxicity assay, TC-1; format: cell-based; conditions: for IC50: Mus musculus, read-out: IC50±SD TC-1; for cytotoxic effect in TC-1 (in words): 0–50 µM, 24 h
Procedure: (§4) Cells were seeded at the density of 2000 cells per well (96-well F microplates; Nunc, Roskilde, Denmark). The following day, the tested compounds were added. In the next 24 h, MTT (3-(4,5-dimethylthiazol-2-yl)-2,5-diphenyltetrazolium bromide) was added. After 6 h, DMF (dimethylformamide) was added, and after additional 24 h, absorbance was measured at 560 nm by a microplate reader.

[4] = system: mouse prostate TRAMP-C2 cancer cell line; experiment: MTT cytotoxicity assay, TRAMP-C2; format: cell-based; conditions: for IC50: Mus musculus, read-out: IC50±SD TRAMP-C2; for cytotoxic effect in TRAMP-C2 (in words): 0–50 µM, 24 h
Procedure: as §4

MDA-MB-231 cells = experiment: Annexin V / propidium iodide FACS, MDA-MB-231; format: cell-based, human; conditions: MDA-MB-231, 0, 5, 10, 20, 50 µM, 24 h
Procedure: (§6) Cells were harvested by centrifugation, resuspended in cold PBS and again centrifuged. Cell pellets were then resuspended in Annexin V Binding Buffer (ApoFlowEx FITC Kit, ED7044, Exbio, Vestec, Czech Republic), annexin V-APC and PI were added to the cell pellet and mixed. Cells were incubated in the dark at room temperature for 15 min. After the incubation, cells were centrifuged, resuspended in Annexin V Binding Buffer and analysed by flow cytometry. Five thousand cells per sample were measured by analysing annexin V and PI using a BD FACSVerse™ flow cytometer (BD Biosciences, Franklin Lakes, NJ). Data were analysed using FlowJo 10 software (FlowJo LLC, Ashland, OR), and the percentage of viable (annexin V-negative/PI-negative) cells relative to control was plotted.

TRAMP-C2 cells = experiment: Annexin V / propidium iodide FACS, TRAMP-C2; format: cell-based, mouse; conditions: TRAMP-C2, 24 h
Procedure: as §6

[5] = system: STAT3 Y705 phosphorylation (pY705); experiment: STAT3 pY705 immunoblotting, MDA-MB-231; format: cell-based, human; conditions: MDA-MB-231, micromolar concentration range, 4 h
Procedure: The cells were exposed to BP-1-102 (1), compounds 6 and 14 in a micromolar concentration range for 4 h, and then the levels of STAT3 pY705 and total STAT3 were probed by immunoblotting with specific antibodies. […] It can be concluded that both novel compounds 6 and 14 manifested inhibitory effects on receptor-mediated phosphorylation of Y705 of STAT3 in both human and mouse cell lines.
Cells were washed three times with PBS, harvested into 95 °C-heated Laemmli SDS sample lysis buffer (2% SDS, 50 mM Tris–Cl, 10% glycerol in double distilled H2O) and sonicated at 3 μm amplitude for 3 × 10 or 3 × 30 s with 10 or 30 s cooling intervals in a Soniprep 150 (MSE, London, UK) or Diagenode Bioruptor 300 (Diagenode, Liege, Belgium) for human and murine cell lines, respectively. Concentration of proteins was estimated by the Pierce^TM BCA Protein Assay (Thermo Scientific, Waltham, MA). DTT (100 mM) and 0.01% bromophenol blue were added to the lysates before separation by SDS-PAGE (10% gels were used). Equal protein amounts (40 or 35 μg for human or murine cell lines, respectively) were loaded into each well. Proteins were electrotransferred onto a nitrocellulose membrane (Amersham^TM Protran^TM 0.45 µm NC, GE Healthcare, Chalfont St Giles, UK) using wet transfer and detected by specific antibodies (at 4 °C overnight) combined with HRP-conjugated secondary antibodies. Peroxidase activity was detected by Amersham^TM ECL Western Blotting Detection Reagents (GE Healthcare, Chalfont St Giles, UK). GAPDH was used as a loading control.

TC-1 cells = experiment: Annexin V / propidium iodide FACS, TC-1; conditions: TC-1, 24 h
Procedure: as §6

[6] = system: human breast adenocarcinoma MCF-7; experiment: Resazurin cytotoxicity assay, MCF-7; conditions: Homo sapiens, MCF7, read-out: IC50±SD MCF-7
Procedure: as §3, §2

[7] = system: human immortalised retinal pigment epithelium RPE-1; experiment: Crystal violet assay, RPE-1; conditions: 0–50 µM, 24 h
Procedure: as §1
(§5) To determine cell viability by crystal violet assay, cells were seeded in 96-well plates at densities of 3000 (RPE-1), 5000 (U373 and T98-G), and 8000 (U-87 MG) cells per well. The next day the cells were treated with the tested compounds in triplicate in a concentration range as indicated. After 24 h, the cells in each well were washed twice with 150 µl PBS and then stained in 30 µl 0.5% w/v crystal violet in 20% methanol for 15 min. Plates were washed three times with double distilled H2O and left to dry overnight. Crystal violet was solubilised with 75 µl 0.2% Triton X-100 (Sigma, St. Louis, MO) in PBS for 15 min. Absorbance of crystal violet was measured at 595 nm using a microplate reader (Multiskan EX, Thermo Electron Corporation, Waltham, MA). Absorbance of the treated samples was expressed as a percentage of absorbance of untreated cells.

human glioblastoma U373 = experiment: Crystal violet assay, U373; conditions: 0–50 µM, 24 h
Procedure: as §1, §5

[8] = system: human glioblastoma cell line T98; experiment: Crystal violet assay, T98; conditions: 0–80 µM, 24 h, compared to U-87 cells
Procedure: as §3, §5

[9] = Homo sapiens, MDA-MB-231, 24 h, resazurin assay, 24 h, read-out: IC50±SD MDA-MB-231

Structure (SMILES): CN(CC(=O)N(Cc1ccc(C2CCCCC2)cc1)c1ccc(C(=O)O)c(O)c1)S(=O)(=O)c1c(F)c(F)c(F)c(F)c1F [BP-1-102 (1), 4-(N-(4-Cyclohexylbenzyl)-2-(2,3,4,5,6-pentafluoro-N-methylphenylsulfonamido)acetamido)-2-hydroxybenzoic acid, reference compound]
- IC50 ([1]; Homo sapiens, MDA-MB-231, 24 h, read-out: IC50±SD MDA-MB-231, resazurin assay, 24 h): 15 µM
- IC50 ([1]; read-out: IC50±SD MDA-MB-231, resazurin assay, 24 h): 15 ± 3.7 µM
- IC50 [2]: 18 ± 8.3 µM
- IC50 (RPE-1): 13.9 ± 0.2 µM
- IC50 [3]: 7.8 ± 1.1 µM
- IC50 [4]: 7.9 ± 4.5 µM
- cell death induction (annexin V/PI, FACS) (MDA-MB-231 cells): cell death induction was confirmed
- cytotoxicity by annexin V/PI staining and FACS (TRAMP-C2 cells): confirmed
- inhibition of constitutive STAT3 Y705 phosphorylation [5]: inhibited constitutive STAT3 phosphorylation
- cytotoxicity by annexin V/PI staining and FACS (TC-1 cells): confirmed

Structure (SMILES): Cc1ccc(S(=O)(=O)N(C)CC(=O)N(Cc2ccccc2)c2ccc(C(=O)O)c(O)c2)cc1 [Compound 3, 4-(N-(Benzyl)-2-(N-methyl-N-(p-toluenesulfonyl))acetamido)-2-hydroxybenzoic acid]
- cytotoxic effect in MDA-MB-231 (in words) ([1]; 24 h, resazurin assay): lacking any significant cytotoxicity; also recorded: complete loss of cytotoxic activity

Structure (SMILES): CN(CC(=O)N(Cc1ccccc1)c1ccc(C(=O)O)c(O)c1)S(=O)(=O)c1c(F)c(F)c(F)c(F)c1F [Compound 4, 4-(N-(Benzyl)-2-(2,3,4,5,6-pentafluoro-N-methylphenylsulfonamido)acetamido)-2-hydroxybenzoic acid]
- cytotoxic effect in MDA-MB-231 (in words) ([1]; 24 h, resazurin assay): mild-to-negligible cytotoxicity
- IC50 [1, 9]: > 50 µM
- IC50 [2]: > 50 µM
- IC50 [6]: > 50 µM
- IC50 (RPE-1): > 50 µM

Structure (SMILES): Cc1ccc(S(=O)(=O)N(C)CC(=O)N(Cc2ccc(C(C)(C)C)cc2)c2ccc(C(=O)O)c(O)c2)cc1 [Compound 5, 4-(N-(4-tert-Butylbenzyl)-2-(N-methyl-N-(p-toluenesulfonyl))acetamido)-2-hydroxybenzoic acid]
- cytotoxic effect in MDA-MB-231 (in words) ([1]; 24 h, resazurin assay): mild-to-negligible cytotoxicity; also recorded: complete loss of cytotoxic activity

Structure (SMILES): CN(CC(=O)N(Cc1ccc(C(C)(C)C)cc1)c1ccc(C(=O)O)c(O)c1)S(=O)(=O)c1c(F)c(F)c(F)c(F)c1F [Compound 6, 4-(N-(4-tert-Butylbenzyl)-2-(2,3,4,5,6-pentafluoro-N-methylphenylsulfonamido)acetamido)-2-hydroxybenzoic acid]
- IC50 [1, 9]: 26.2 µM
- concentration from which the compound was cytotoxic ([1]; MDA-MB-231, 24 h, resazurin assay): 10 µM
- IC50 ([1]; resazurin assay, 24 h, read-out: IC50±SD MDA-MB-231): 26.2 ± 5.6 µM
- IC50 [2]: 34 ± 2.6 µM
- IC50 [6]: 19.6 ± 3.6 µM
- IC50 (RPE-1): 24.5 ± 2.6 µM
- cytotoxic effect in TC-1 (in words) [3]: cytotoxic activity comparable to BP-1-102 (1)
- IC50 [3]: 6.2 ± 1.1 µM
- cytotoxic effect in TRAMP-C2 (in words) ([4]; MTT assay): cytotoxic activity comparable to BP-1-102 (1)
- IC50 ([4]; MTT assay): 14.5 ± 13.4 µM
- cytotoxic activity in RPE-1 (in words) [7]: concentration-dependent cytotoxic activity
- cytotoxic activity in U373 (in words) (human glioblastoma U373): concentration-dependent cytotoxic activity
- cytotoxicity in T98 (in words) [8]: remarkable resistance
- cell death induction (annexin V/PI, FACS) (MDA-MB-231 cells): cell death induction was confirmed
- cytotoxicity by annexin V/PI staining and FACS (TRAMP-C2 cells): confirmed
- inhibition of constitutive STAT3 Y705 phosphorylation [5]: inhibited constitutive STAT3 phosphorylation
- cytotoxicity by annexin V/PI staining and FACS (TC-1 cells): confirmed

Structure (SMILES): COc1ccc(CN(C(=O)CN(C)S(=O)(=O)c2c(F)cc(F)cc2F)c2ccc(C(=O)O)c(O)c2)cc1 [Compound 7, 4-(N-(4-Methoxybenzyl)-2-(2,4,6-trifluoro-N-methylphenylsulfonamido)acetamido)-2-hydroxybenzoic acid]
- cytotoxic effect in MDA-MB-231 (in words) ([1]; 24 h, resazurin assay): lacking any significant cytotoxicity; also recorded: complete loss of cytotoxic activity

Structure (SMILES): COc1ccc(CN(C(=O)CN(C)S(=O)(=O)c2c(F)c(F)c(F)c(F)c2F)c2ccc(C(=O)O)c(O)c2)cc1 [Compound 8, 4-(N-(4-Methoxybenzyl)-2-(2,3,4,5,6-pentafluoro-N-methylphenylsulfonamido)acetamido)-2-hydroxybenzoic acid]
- cytotoxic effect in MDA-MB-231 (in words) ([1]; 24 h, resazurin assay): lacking any significant cytotoxicity; also recorded: no cytotoxic activity
- cytotoxic effect in TC-1 (in words) [3]: mild cytotoxic effect; also recorded: mild cytotoxicity
- cytotoxic effect in TRAMP-C2 (in words) ([4]; MTT assay): mild cytotoxic effect; also recorded: mild cytotoxicity
- cytotoxic activity in U373 (in words) (human glioblastoma U373): no cytotoxic activity

Structure (SMILES): CN(CC(=O)N(Cc1ccc(C(F)(F)F)cc1)c1ccc(C(=O)O)c(O)c1)S(=O)(=O)c1ccccc1 [Compound 9, 4-(N-(4-Trifluoromethylbenzyl)-2-(N-methylphenylsulfonyl)acetamido)-2-hydroxybenzoic acid]
- cytotoxic effect in MDA-MB-231 (in words) ([1]; 24 h, resazurin assay): complete loss of cytotoxic activity
